# Source: patent US9505798B2, “Steroid compounds as RORyt modulators and uses thereof” (New York University, priority 2010, dated 2016)
# Assays:
# [1] = tested on: mouse Th17 cell differentiation; assay: In vitro mouse naive CD4+ T cell polarization; format: cell-based
# Method: Naive CD25^− CD62L^+CD44^low/int cells were sorted from RORγt^fl/fl mice and transduced with control-IRES-GFP (WT) or CRE-IRES-GFP (KO) retrovirus. […] FACS-sorted naive T cells were transduced with retroviral vectors encoding murine RORα-IRES-GFP or RORγt-IRES-GFP on Day 1 (16 h after TCR stimulation) and GFP expressing cells were gated for analysis on Day 5. […] Lymphocytes were isolated on day 21 after disease induction. The cells were stimulated for 4 h with PMA/Ionomycin and stained for surface markers and intracellular cytokines.
# T cells were purified from lymph nodes and spleens of six to eight weeks old B6 mice (Taconic), by magnetically depleting B220^+ cells (autoMACS, Miltenyi), and then sorting CD8^−DAPI^−CD19^−CD4^+CD25^−CD62L^+CD44^low/Int naive T cells on a FACSAria (BD). […] For T cell polarization, 200 μl cells were seeded at 0.4×10^5 cells per mL in 96-well plates pre-coated with anti-CD3ε (5 μg/mL) and anti-CD28 (10 μg/mL). Cells were cultured for 4-5 days in Th17 (TGF-β (0.3 ng/mL), IL-6 (20 ng/mL), and anti-IFN-γ and anti-IL-4 (2 ng/mL)), Th1 (IL-12 (10 ng/mL), IL-2 (10 U/mL) and anti-IL-4 (2 ng/mL)), or Th2 (IL-4 (10 ng/mL), and anti-P35 and anti-IFN-γ 2 ng/mL)) conditions. For ectopic expression ROR proteins, native CD4^+ T cells were infected with retroviral MIGr-control, MIGr-RORα or MIGr-RORγ 24 hrs after activation, and cultured without exogenous cytokines or only with IL-6. At day 1, compounds dissolved in DMSO were added. For cytokine analysis, cells were incubated for 5 hours with phorbol 12-myristate 13-acetate (50 ng/mL; Sigma), ionomycin (500 ng/mL; Sigma) and GolgiStop (BD). Intracellular cytokine staining was performed according to the manufacturer's protocol (Cytofix/Cytoperm buffer set from BD) with alexa647-conjugated anti-IL-17a (eBioscience), and PE-conjugated anti-IFN-γ or anti-IL-4 (eBioscience). An LSR II (BD Biosciences) and FlowJo software (Tree Star) were used for flow cytometry and analysis. Dead cells were excluded using the Live/Dead fixable aqua dead cell stain kit (Invitrogen).
# Complementary DNAs (cDNAs) were synthesized from TRIzol (Invitrogen) isolated RNA, using M-MLV Reverse Transcriptase (Promega). Real-time RT-PCR was performed with SYBRgreen master mix (Roche) and the Roche real-time PCR system (Roche480). Gene specific values were normalized to Actb for each sample.
# [2] = tested on: IL-17a production in human CD4+ T cells; assay: Human cord blood CD4+ T cells expressing murine ATP1a1, Th17 conditions; format: cell-based; details: murine Na+/K+-ATPase α1 expressed, 10 μM
# Method: Blood samples were obtained from the New York Blood Center. Mononuclear cells were prepared from buffy coats from healthy adult donors or from cord blood, using FicollPAQUE gradients. CD4^+ T cells were magnetically selected (autoMACS, Miltenyi). Adult memory CD4+ T cell subsets were further purified as CD3^+CD4^+CD25^−CD45RO^+CCR6^+CD161^+ by cell sorting on a FACSAria (BD). Naive CD4^+ T cells were isolated from cord blood as CD3^+CD4^+CD45RA^+HLA^−DR^−CD25^−DAPI^−. Memory cells were activated with anti-CD3/CD28 coated beads (1 bead/cell) in T cell media (see above) supplemented with 100 U/mL IL-2 (Peprotech), 10 ng/mL IL-1β and 10 ng/mL IL-23 (eBioscience). Naive cells were activated with anti-CD3/CD28 beads and cultured with the same cytokines, and TGF-β (0, 0.1, 1, or, 10 ng/mL) (Peprotech), in XVIVO-20 (Lonza) media. […] Naive CD4+ T cells, cultured in XVIVO-20 media supplemented with 100 U/mL IL-2 (Peprotech), were transduced with RORαd-IRES-GFP or RORγt-IRES-GFP on day 1 and analyzed on day 6. GFP expressing cells were gated for analysis. DMSO or compounds were added 6-8 hours after the viral transduction.
structure (smiles),measurement,setting,value
C[C@H]1O[C@@H](O[C@H]2[C@@H](O)C[C@H](O[C@H]3[C@@H](O)C[C@H](O[C@H]4CC[C@@]5(C)[C@H](CC[C@@H]6[C@@H]5C[C@@H](O)[C@]5(C)[C@@H](C7=CC(=O)OC7)CC[C@]65O)C4)O[C@@H]3C)O[C@@H]2C)C[C@H](O)[C@@H]1O [Digoxin],"differentiation of naive CD4+ T cells into Th1, Th2 and regulatory T cells",[1],no effect
same,induction of RORγt mRNA and protein expression,[1]; Th17 conditions,not affected
same,transcriptional up-regulation of IL-23 receptor (IL-23R) gene,[1]; Th17 polarizing conditions,strongly inhibited
same,expression of IL-17a mRNA and protein,"[1]; Th17 polarizing conditions, 10 μM",markedly reduced
same,IL-17a expression,[2],suppressed IL-17a production without affecting IFN-γ expression
